Experimental data reported in patent US11072626B2, “Small molecule inhibitors of Galectin-3” (BRISTOL-MYERS SQUIBB COMPANY, priority 2017, dated 2021).
Like-named read-outs stand apart in the source and are kept apart here.

Target: His-tagged recombinant human Gal-3 (hGal-3) (Homo sapiens (Human), UniProt P17931)
Experiment: Gal-3 HTRF assay (hGal-3 / B-ASF)
Assay type: binding
Conditions: 15 nM hGal-3, 15 nM B-ASF
Experimental: ASSAY BUFFER Composition: 25 mM HEPES, 100 mM NaCl, 0.005% Tween 20, 0.05% BSA prepared in sterile water (all reagents from Sigma)
Positive Control: 100% DMSO (1 μl)+His-tagged hGal-3 (20 μL)+B-ASF (20 μl)+Anti-His Terbium Antibody (5 μl)+Strep d2 Antibody (5 μl).
Negative Control: 100% DMSO (1 μl)+His-tagged hGal-3 (20μL)+Anti His Terbium Antibody (5 μl)+Strep d2 Aantibody (5 μl).
PROTOCOL: The Gal-3 assays were performed in 384 white Opti plates in three replicates at room temperature with gentle shaking at 250-300 rpm From the original stocks, […] working stock concentrations of His-tagged recombinant human Gal-3 (hGal-3) and that of B-ASF were prepared. From the working stock, 20 μl of hGal-3 (15 nM) and 20 μl B-ASF (15 nM) were added to the plates. In Negative Control, only hGal-3 was added. A concentration range of 50× working stocks were prepared for the compounds in 100% DMSO. Aliquots of 1 uL of the compounds were added to the wells and pre-incubated with 20 μl hGal-3 per well for 30 minutes Then 20 μl B-ASF were added and incubated for another 1 hour. To detect the signal, 5 μ(final conc. of 1.0 nM) terbium labelled Anti-His antibody was added and incubated for 30 min followed by adding 5 μ(final conc. of 20 nM) Streptavidin d2 and incubation for another 1 hour. The assay signal was detected using HTRF screen protocol (Excitation wavelength=340 nm, emission wavelength=615 nm/665 nm) on Envision 2104 Multilabel Reader. Data analysed using Toolset and Curve Master. Results are reported in the experimental section (IC50 in μM).

[1] = table after Example 20, read-out: hGal3 IC50
[2] = three replicates, room temperature, read-out: hGal3 IC50

Chain of His-tagged recombinant human Gal-3 (hGal-3) (P17931 whole entry): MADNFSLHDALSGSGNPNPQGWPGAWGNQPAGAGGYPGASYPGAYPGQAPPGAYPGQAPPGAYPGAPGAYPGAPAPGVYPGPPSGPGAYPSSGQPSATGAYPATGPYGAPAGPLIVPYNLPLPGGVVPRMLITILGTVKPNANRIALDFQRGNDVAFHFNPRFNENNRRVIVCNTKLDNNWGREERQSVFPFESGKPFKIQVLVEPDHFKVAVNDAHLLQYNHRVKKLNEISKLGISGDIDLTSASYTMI

| IC50 [1] | IC50 [2] | SMILES |
| --- | --- | --- |
| 225 nM | – | O=C(CO[C@@H]1[C@@H](n2cc(-c3cc(F)c(F)c(F)c3)nn2)[C@@H](O)[C@@H](CO)O[C@@H]1Sc1ccc(Cl)c(Cl)c1)N1CCCCC1 [Example 21] |
| 43 nM | – | O=C(CO[C@@H]1[C@@H](n2cc(-c3cc(F)c(F)c(F)c3)nn2)[C@@H](O)[C@@H](CO)O[C@@H]1Sc1ccc(Cl)c(Cl)c1)N1CCS(=O)(=O)CC1 [Example 22, 2-(((2R,3R,4S,5R,6R)-2-((3,4-dichlorophenyl)thio)-5-hydroxy-6-(hydroxymethyl)-4-(4-(3,4,5-trifluorophenyl)-1H-1,2,3-triazol-1-yl)tetrahydro-2H-pyran-3-yl)oxy)-1-(1,1-dioxidothiomorpholino)ethan-1-one] |
| 60 nM | – | O=C(CO[C@@H]1[C@@H](n2cc(-c3cc(F)c(F)c(F)c3)nn2)[C@@H](O)[C@@H](CO)O[C@@H]1Sc1ccc(Cl)c(Cl)c1)N1CCC[C@@H](O)C1 [Example 23] |
| 150 nM | – | O=C(CO[C@@H]1[C@@H](n2cc(-c3cc(F)c(F)c(F)c3)nn2)[C@@H](O)[C@@H](CO)O[C@@H]1Sc1ccc(Cl)c(Cl)c1)N1CCCC(F)(F)C1 [Example 24] |
| 76 nM | – | O=C(CO[C@@H]1[C@@H](n2cc(-c3cc(F)c(F)c(F)c3)nn2)[C@@H](O)[C@@H](CO)O[C@@H]1Sc1ccc(Cl)c(Cl)c1)N1CCOCC1 [Example 25, 2-(((2R,3R,4S,5R,6R)-2-((3,4-dichlorophenyl)thio)-5-hydroxy-6-(hydroxymethyl)-4-(4-(3,4,5-trifluorophenyl)-1H-1,2,3-triazol-1-yl)tetrahydro-2H-pyran-3-yl)oxy)-1-morpholinoethan-1-one] |
| 86 nM | – | O=C1CN(C(=O)CO[C@@H]2[C@@H](n3cc(-c4cc(F)c(F)c(F)c4)nn3)[C@@H](O)[C@@H](CO)O[C@@H]2Sc2ccc(Cl)c(Cl)c2)CCN1 [Example 26] |
| 70 nM | – | O=C(CO[C@@H]1[C@@H](n2cc(-c3cc(F)c(F)c(F)c3)nn2)[C@@H](O)[C@@H](CO)O[C@@H]1Sc1ccc(Cl)c(Cl)c1)N1CC[C@@H](O)C1 [Example 27] |
| 48 nM | – | O=C(CO[C@@H]1[C@@H](n2cc(-c3cc(F)c(F)c(F)c3)nn2)[C@@H](O)[C@@H](CO)O[C@@H]1Sc1ccc(Cl)c(Cl)c1)N1CC[C@H](O)C1 [Example 28] |
| 72 nM | – | O=C(CO[C@@H]1[C@@H](n2cc(-c3cc(F)c(F)c(F)c3)nn2)[C@@H](O)[C@@H](CO)O[C@@H]1Sc1ccc(Cl)c(Cl)c1)N1CCC[C@H]1CO [Example 29] |
| 800 nM | – | CC(=O)NC1CN(C(=O)CO[C@@H]2[C@@H](n3cc(-c4cc(F)c(F)c(F)c4)nn3)[C@@H](O)[C@@H](CO)O[C@@H]2Sc2ccc(Cl)c(Cl)c2)C1 [Example 30] |
| 90 nM | – | O=C(CO[C@@H]1[C@@H](n2cc(-c3cc(F)c(F)c(F)c3)nn2)[C@@H](O)[C@@H](CO)O[C@@H]1Sc1ccc(Cl)c(Cl)c1)N1CC(O)C1 [Example 31] |
| 700 nM | – | COCCN(C)C(=O)CO[C@@H]1[C@@H](n2cc(-c3cc(F)c(F)c(F)c3)nn2)[C@@H](O)[C@@H](CO)O[C@@H]1Sc1ccc(Cl)c(Cl)c1 [Example 32] |
| 60 nM | – | O=C(CO[C@@H]1[C@@H](n2cc(-c3cc(F)c(F)c(F)c3)nn2)[C@@H](O)[C@@H](CO)O[C@@H]1Sc1ccc(Cl)c(Cl)c1)N1CCC[C@H](O)C1 [Example 33, 2-(((2R,3R,4S,5R,6R)-2-((3,4-dichlorophenyl)thio)-5-hydroxy-6-(hydroxymethyl)-4-(4-(3,4,5-trifluorophenyl)-1H-1,2,3-triazol-1-yl)tetrahydro-2H-pyran-3-yl)oxy)-1-((S)-3-hydroxypiperidin-1-yl)ethan-1-one] |
| 660 nM | – | O=C(CO[C@@H]1[C@@H](n2cc(-c3cc(F)c(F)c(F)c3)nn2)[C@@H](O)[C@@H](CO)O[C@@H]1Sc1ccc(Cl)c(Cl)c1)NC1CC2(CC(O)C2)C1 (stereo partly drawn) [Example 34] |
| – | 50 nM | O=C(CO[C@@H]1[C@@H](n2cc(-c3cc(F)c(F)c(F)c3)nn2)[C@@H](O)[C@@H](CO)O[C@@H]1[S@+]([O-])c1ccc(Cl)c(Cl)c1)N1CCS(=O)(=O)CC1 [Example 35, 2-(((2R,3R,4S,5R,6R)-2-((R)-(3,4-dichlorophenyl)sulfinyl)-5-hydroxy-6-(hydroxymethyl)-4-(4-(3,4,5-trifluorophenyl)-1H-1,2,3-triazol-1-yl)tetrahydro-2H-pyran-3-yl)oxy)-1-(1,1-dioxidothiomorpholino)ethan-1-one] |
| – | 70 nM | O=C(CO[C@@H]1[C@@H](n2cc(-c3cc(F)c(F)c(F)c3)nn2)[C@@H](O)[C@@H](CO)O[C@@H]1[S@@+]([O-])c1ccc(Cl)c(Cl)c1)N1CCC[C@H](O)C1 [Example 36, 2-(((2R,3R,4S,5R,6R)-2-((S)-(3,4-dichlorophenyl)sulfinyl)-5-hydroxy-6-(hydroxymethyl)-4-(4-(3,4,5-trifluorophenyl)-1H-1,2,3-triazol-1-yl)tetrahydro-2H-pyran-3-yl)oxy)-1-((S)-3-hydroxypiperidin-1-yl)ethan-1-one] |
| – | 80 nM | O=C(CO[C@@H]1[C@@H](n2cc(-c3cc(F)c(F)c(F)c3)nn2)[C@@H](O)[C@@H](CO)O[C@@H]1[S@@+]([O-])c1ccc(Cl)c(Cl)c1)N1CCOCC1 [Example 37, 2-(((2R,3R,4S,5R,6R)-2-((S)-(3,4-dichlorophenyl)sulfinyl)-5-hydroxy-6-(hydroxymethyl)-4-(4-(3,4,5-trifluorophenyl)-1H-1,2,3-triazol-1-yl)tetrahydro-2H-pyran-3-yl)oxy)-1-morpholinoethan-1-one] |
| – | 680 nM | O=C(O)/C=C\O[C@@H]1[C@@H](n2cc(-c3cc(F)c(F)c(F)c3)nn2)[C@@H](O)[C@@H](CO)O[C@@H]1Sc1ccc(Cl)c(Cl)c1 [Example 40 (cis-isomer), (Z)-3-(((2R,3R,4S,5R,6R)-2-((3,4-dichlorophenyl)thio)-5-hydroxy-6-(hydroxymethyl)-4-(4-(3,4,5-trifluorophenyl)-1H-1,2,3-triazol-1-yl)tetrahydro-2H-pyran-3-yl)oxy)acrylic acid] |
| – | 60 nM | O=C(O)/C=C/O[C@@H]1[C@@H](n2cc(-c3cc(F)c(F)c(F)c3)nn2)[C@@H](O)[C@@H](CO)O[C@@H]1Sc1ccc(Cl)c(Cl)c1 [Example 40 (trans-isomer), (E)-3-(((2R,3R,4S,5R,6R)-2-((3,4-dichlorophenyl)thio)-5-hydroxy-6-(hydroxymethyl)-4-(4-(3,4,5-trifluorophenyl)-1H-1,2,3-triazol-1-yl)tetrahydro-2H-pyran-3-yl)oxy)acrylic acid] |
| – | 2740 nM | O=C(O)/C=C/O[C@@H]1[C@@H](n2cc(C3CC3)nn2)[C@@H](O)[C@@H](CO)O[C@@H]1Sc1ccc(Cl)c(Cl)c1 [Example 41, (E)-3-(((2R,3R,4S,5R,6R)-4-(4-cyclopropyl-1H-1,2,3-triazol-1-yl)-2-((3,4-dichlorophenyl)thio)-5-hydroxy-6-(hydroxymethyl)tetrahydro-2H-pyran-3-yl)oxy)acrylic acid] |
| – | 5000 nM | CO[C@@H]1[C@@H](n2cc(C(=O)O)nn2)[C@@H](O)[C@@H](CO)O[C@@H]1Sc1ccc(Cl)c(Cl)c1 [Example 42, 1-((2R,3R,4S,5R,6R)-2-((3,4-dichlorophenyl)thio)-5-hydroxy-6-(hydroxymethyl)-3-methoxytetrahydro-2H-pyran-4-yl)-1H-1,2,3-triazole-4-carboxylic acid] |
